# Experimental data taken from US20090023700A1, “NEUROPROTECTIVE TREATMENTS” (University of Louisville Research Foundation, priority 2007, published 2009).
# Several values for one entry are separate records, joined by “and”; a condition that tells them apart may be missing. Identical values can stand only once.
# Key:
# [1] = system: T9 contusive spinal cord injury; assay: T9 spinal cord contusion, intrathecal infusion: CTB tracing, white matter (EC) and C3 axon histology; assay type: in vivo, rat; details: for CTB-traced fiber area in the gracile nucleus: PBS 43+/−17
# [2] = system: T9 contusive spinal cord injury; assay: Semmes-Weinstein filament test for at-level pain (allodynia); assay type: in vivo, rat; details: 100 μM, 28 d L5/6 infusion
# Method: Whether bpV(phen) might have detrimental side effects, such as inducing pain at the level of the injury, was tested. Severe spinal cord injury can induce hypersensitivity and mechanical allodynia (a painful response to a nonpainful tactile skin stimulus) at the level of injury. […] Differences between any of the bpV(phen)- and PBS-treated groups in the overall health status, general behavior, and grooming of the rats were not observed.
# Iba1 = Iba1 immunostaining (microglial/macrophage activation) after T9 contusion; assay type: in vivo, rat; details: 7 d infusion started 4 h after injury
# Method: Inflammation is a major contributor to white matter loss after spinal cord injury. Therefore, to find a potential mechanism for the axon- and myelin-protective effects of bpV(phen), its effects on Iba1 immunostaining were measured as a marker for microglial/macrophage activation and inflammation. […] Whereas, PBS-infused rats had clear infiltrates of activated macrophages, those infused with bpV(phen) had predominantly […] microglial cells. […] The extent of white matter loss in the dorsal column at the epicenter correlated to the extent of microglia/macrophage activation at the epicenter (FIG. 8B). The extent of inflammation 1 mm rostral to the injury correlated with the loss of CTB-labeled sensory projections in the gracile nucleus (FIG. 8C) but not with that seen at the epicenter (p=0.3) or caudal to the lesion (p=0.57). […] Conversely, the possibility that bpV(phen) affected inflammation at other times over the 7 d period cannot be excluded.
# Anterogradely labeled sensory fibers and terminals were visualized in every third section through both gracile nuclei by DAB-based immunostaining for CTB as described previously (Baker et al. (2007) Exp Neurol 205:82-91). The lumbar sections were stained to ensure that the CTB injections were successful as evidenced by traced afferents and motor neurons. […] The epicenter of maximal injury was determined by the rostrocaudal level with the least amount of spared white matter per transverse section. […]
# Quantitative measurements and statistics. The extent of sensory innervation of the gracile nucleus was determined by measuring the CTB-labeled terminal fiber area in every third section as described previously (Baker et al. (2007) Exp Neurol 205:82-91). In short, images of every third section through the right and left gracile nuclei were analyzed using the density slice feature of the Scion Image software. […] Images of EC-stained sections were captured, and the positive areas were measured with Scion Image. […]
# cdc25B PTP = details: yeast enzyme; cited from earlier work
# C6 cells = details: cited from earlier work
# [3] = system: Madin-Darby canine kidney cells; details: H2O2-susceptible Madin-Darby canine kidney cells; cited from earlier work
# AP1 = details: macrophages; cited from earlier work
# [4] = system: T9 contusive spinal cord injury; assay: Grid-walking sensorimotor test after T9 contusion
# Method: Rats received a 0.3 mm contusion at T9 and 4 h later were implanted with a lumbar catheter to start infusions with PBS (n=9) or PBS containing 100 μM bpV(phen) (n=9). The treatment was maintained for 28 d by replacing the Alzet pumps every week with ones containing fresh reagents (FIG. 1A). Weekly hindlimb grid-walking performance was used to test sensorimotor function, which is in part dependent on the primary afferents and second-order propriospinal axons of the fasciculus gracilis in the dorsal columns. […] Naive rats take ˜150 s to complete the task.
# Baseline values were determined a few days before the contusion. Sensorimotor function was tested by voluntary walking on a 45×45 inch grid with 1.5 inch holes. The hindlimb footfalls were called out by two investigators observing from different sides and recorded by a third. The test was completed after 90 s of walking was observed, and the total time was recorded.
# [5] = 100 μM, 7 d L5/6 infusion started immediately after 0.3 mm contusion
structure (smiles),measurement,setting,value
"O.O.O.OO.OO.[K+].[OH-].[V].c1cnc2c(c1)ccc1cccnc12 [bpV(phen), potassium bisperoxo(1,10-phenanthroline)oxovanadate (V)]",CTB-traced fiber area in the gracile nucleus,"[1]; 30 μM, 7 d L5/6 infusion started immediately after 0.3 mm contusion",60+/−5%
same,CTB-labeled terminal fiber area in the gracile nucleus,"[1]; 30 μM, 7 d intrathecal infusion at T9 started immediately after 0.3 mm contusion, PBS 17+/−7%",47+/−6 % of sham
same,area of spared white matter in the dorsal column at injury epicenter,"[1]; 30 μM, 7 d intrathecal infusion at T9 started immediately after 0.3 mm contusion, PBS 28+/−6%",50+/−8 % of sham
same,spared dorsal column white matter at the epicenter,"[1]; 100 μM, 7 d L5/6 infusion started 4 h after 0.3 mm contusion, PBS 37+/−6%",78+/−7%
same,gracile nucleus innervation (CTB),"[1]; 100 μM, 7 d L5/6 infusion started 4 h after 0.3 mm contusion, PBS 66+/−11%",100+/−7%
same,total white matter,"[1]; 100 μM, 7 d L5/6 infusion started 4 h after 0.3 mm contusion, PBS 70+/−5%",103+/−4%
same,area of spared dorsal column white matter at the injury epicenter,[1]; [5],58+/−12%
same,CTB-traced fiber area in the gracile nucleus,[1]; [5],93+/−11%
same,total white matter at the epicenter,"[1]; 100 μM, 7 d L5/6 infusion started immediately after 0.3 mm contusion, PBS 68+/−6%",90+/−12%
same,CTB-labeled innervation of the gracile nucleus,"[1]; 100 μM, 28 d L5/6 infusion started 4 h after contusion, 42 d after injury, 14 d after end of infusion, PBS 68+/−11%",106+/−9 % of sham
same,area of spared white matter in the dorsal column at the T9 injury epicenter,"[1]; 100 μM, 28 d L5/6 infusion started 4 h after contusion, 42 d after injury, PBS 48+/−8%",79+/−7% and 80%
same,number of myelinated axons in fasciculus gracilis at C3,"[1]; 100 μM, 28 d L5/6 infusion started 4 h after contusion, 42 d after injury, PBS 63+/−6%",102+/−5%
same,CTB-traced fiber area in the gracile nucleus,"[1]; 300 μM, 7 d L5/6 infusion started immediately after 0.3 mm contusion",80+/−14%
same,induction of pain by chronic infusion,[2],do not induce pain
same,Semmes-Weinstein filament size evoking a response (pain at level of injury),[2]; entire test period,not different from those of the PBS group
same,area of Iba1-immunostained structures,"Iba1; 1 mm caudal to epicenter, p=0.49",no difference
same,area of Iba1-immunostained structures,"Iba1; 1 mm rostral to epicenter, p<0.005",significantly reduced
same,area of Iba1-immunostained structures,"Iba1; at the epicenter, p=0.053",trend of a reduction
same,inhibition of catalytic activity of purified cdc25B PTP,cdc25B PTP,can inhibit
same,oxidative damage to DNA,C6 cells,does not cause oxidative damage to DNA
same,cell death,[3],does not cause death
same,AP1 activation,AP1,activates
same,total time to perform 90 s of grid walking,"[4]; 100 μM L5/6 infusion started 4 h after contusion, 8 d, PBS 219 s, naive ~150 s",151 s
same,"number of hindlimb footfalls (sum of both hindlimbs), grid walk","[4]; 100 μM L5/6 infusion started 4 h after contusion, 8 d test, PBS 29+/−6, before contusion 7+/−1",14+/−2
same,rats within normal range of footfalls (3-14),"[4]; 100 μM L5/6 infusion started 4 h after contusion, day 8, PBS one of nine",seven of nine
same,"number of hindlimb footfalls, grid walk","[4]; 100 μM, 28 d L5/6 infusion started 4 h after contusion, 29 d test, PBS 13+/−2",6+/−1
same,total time to perform 90 s of grid walking,"[4]; 100 μM, 28 d L5/6 infusion started 4 h after contusion, 36 d, PBS 200 s",125 s
